In PubChem BioAssay (NCI):
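Step 1: Grow cells in 96-well plates. Step 2: Expose to compound for 48 hours at 5 concentrations. Step 3: Interpolate endpoints linearly; if unreached, use highest concentration. GI50 marks 50% less growth. TGI: concentration producing complete growth inhibition.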

What was measured:
Test in all cases: inhibition of tumour cell growth, NCI panel, 48 h; in the data active = GI50 below about 0.43 µM; inactive = the rest
HL-60(TB) leukemia = test system: HL-60(TB) leukemia
OVCAR-3 ovarian = test system: OVCAR-3 ovarian
A498 renal = test system: A498 renal
K-562 leukemia = test system: K-562 leukemia
HOP-92 NSCLC = test system: HOP-92 NSCLC
KM12 colon = test system: KM12 colon
RPMI-8226 leukemia = test system: RPMI-8226 leukemia
NCI-H460 lung = test system: NCI-H460 lung
SNB-75 CNS = test system: SNB-75 CNS
NCI-H522 lung = test system: NCI-H522 lung
DU-145 prostate = test system: DU-145 prostate
TK-10 renal = test system: TK-10 renal
HCT-116 colon = test system: HCT-116 colon
SNB-19 CNS = test system: SNB-19 CNS
MDA-MB-231 breast = test system: MDA-MB-231 breast
BT-549 breast = test system: BT-549 breast
MCF7 breast = test system: MCF7 breast
PC-3 prostate = test system: PC-3 prostate
SK-MEL-28 melanoma = test system: SK-MEL-28 melanoma
UACC-257 melanoma = test system: UACC-257 melanoma
NCI-H226 lung = test system: NCI-H226 lung
SK-MEL-2 melanoma = test system: SK-MEL-2 melanoma
A549 NSCLC = test system: A549 NSCLC
SF-295 CNS = test system: SF-295 CNS
786-0 renal = test system: 786-0 renal
SW-620 colon = test system: SW-620 colon
SK-OV-3 ovarian = test system: SK-OV-3 ovarian
OVCAR-8 ovarian = test system: OVCAR-8 ovarian
HCT-15 colon = test system: HCT-15 colon
SK-MEL-5 melanoma = test system: SK-MEL-5 melanoma
UO-31 renal = test system: UO-31 renal
MOLT-4 leukemia = test system: MOLT-4 leukemia
ACHN renal = test system: ACHN renal
T-47D breast = test system: T-47D breast
MALME-3M melanoma = test system: MALME-3M melanoma
U251 CNS = test system: U251 CNS
NCI/ADR-RES ovarian = test system: NCI/ADR-RES ovarian
SF-539 CNS = test system: SF-539 CNS
HCC-2998 colon = test system: HCC-2998 colon
NCI-H23 lung = test system: NCI-H23 lung
HT29 colon = test system: HT29 colon
UACC-62 melanoma = test system: UACC-62 melanoma
EKVX NSCLC = test system: EKVX NSCLC
OVCAR-5 ovarian = test system: OVCAR-5 ovarian
M14 melanoma = test system: M14 melanoma
HOP-62 NSCLC = test system: HOP-62 NSCLC
SN12C renal = test system: SN12C renal
IGROV1 ovarian = test system: IGROV1 ovarian
HS 578T breast = test system: HS 578T breast
SF-268 CNS = test system: SF-268 CNS
OVCAR-4 ovarian = test system: OVCAR-4 ovarian
SR leukemia = test system: SR leukemia
LOX IMVI melanoma = test system: LOX IMVI melanoma
CCRF-CEM leukemia = test system: CCRF-CEM leukemia

CO[C@]12C=C/C(=C(/C(=O)OCc3cccnc3)C(=O)CCCCCCCC[C@]3(OC)C=C/C(=C(/C(=O)OCc4cccnc4)C(=O)CCCCCCCC1)O3)O2
1.72 µM: TGI (A498 renal)
1.3 µM: TGI (K-562 leukemia)
0.927 µM: TGI (RPMI-8226 leukemia)
1.96 µM: TGI (TK-10 renal)
0.554 µM: TGI (NCI-H522 lung)
active: GI50 (HL-60(TB) leukemia) 0.337 µM | GI50 (OVCAR-3 ovarian) 0.312 µM | GI50 (K-562 leukemia) 0.337 µM | GI50 (HOP-92 NSCLC) 0.262 µM | GI50 (KM12 colon) 0.207 µM | GI50 (RPMI-8226 leukemia) 0.291 µM | GI50 (NCI-H460 lung) 0.321 µM | GI50 (SNB-75 CNS) 0.247 µM | GI50 (NCI-H522 lung) 0.225 µM | GI50 (DU-145 prostate) 0.375 µM
1.27 µM: TGI (DU-145 prostate)
1.02 µM: TGI (HL-60(TB) leukemia) | TGI (NCI-H460 lung)
inactive: GI50 (A498 renal) 0.432 µM | GI50 (TK-10 renal) 0.583 µM
1.2 µM: TGI (SNB-75 CNS)
0.429 µM: TGI (KM12 colon)
0.889 µM: TGI (HOP-92 NSCLC)
0.917 µM: TGI (OVCAR-3 ovarian)

COC(=O)/C=C/c1cc(OC)c2c(c1)[C@@H](C(=O)OC)[C@H](c1ccc(OC)c(OC)c1)O2
active: GI50 (MCF7 breast) 0.388 µM
33 µM: TGI (A498 renal)
14.2 µM: TGI (MCF7 breast)
> 100 µM: TGI (HCT-116 colon) | TGI (SNB-19 CNS) | TGI (MDA-MB-231 breast) | TGI (BT-549 breast) | TGI (PC-3 prostate) | TGI (SK-MEL-28 melanoma) | TGI (UACC-257 melanoma) | TGI (NCI-H226 lung) | TGI (SK-MEL-2 melanoma) | TGI (A549 NSCLC) | TGI (SF-295 CNS) | TGI (786-0 renal) | TGI (SW-620 colon) | TGI (SK-OV-3 ovarian) | TGI (OVCAR-8 ovarian) | TGI (HCT-15 colon) | TGI (SK-MEL-5 melanoma) | TGI (UO-31 renal) | TGI (MOLT-4 leukemia) | TGI (ACHN renal) | TGI (T-47D breast) | TGI (MALME-3M melanoma) | TGI (HOP-92 NSCLC) | TGI (U251 CNS) | TGI (KM12 colon) | TGI (NCI/ADR-RES ovarian) | TGI (SF-539 CNS) | TGI (HCC-2998 colon) | TGI (NCI-H23 lung) | TGI (HT29 colon) | TGI (UACC-62 melanoma) | TGI (EKVX NSCLC) | TGI (OVCAR-5 ovarian) | TGI (M14 melanoma) | TGI (NCI-H460 lung) | TGI (HOP-62 NSCLC) | TGI (SN12C renal) | TGI (IGROV1 ovarian) | TGI (HS 578T breast) | TGI (SF-268 CNS) | TGI (SNB-75 CNS) | TGI (OVCAR-4 ovarian) | TGI (SR leukemia) | TGI (LOX IMVI melanoma) | TGI (NCI-H522 lung) | TGI (DU-145 prostate) | TGI (CCRF-CEM leukemia) | TGI (TK-10 renal)
inactive: GI50 (HCT-116 colon) 0.528 µM | GI50 (SNB-19 CNS) 8.64 µM | GI50 (MDA-MB-231 breast) 7.39 µM | GI50 (BT-549 breast) 4.88 µM | GI50 (PC-3 prostate) 2.11 µM | GI50 (SK-MEL-28 melanoma) 26.4 µM | GI50 (NCI-H226 lung) 38.4 µM | GI50 (SK-MEL-2 melanoma) 2.8 µM | GI50 (A549 NSCLC) 11.2 µM | GI50 (SF-295 CNS) 0.715 µM | GI50 (786-0 renal) 4.89 µM | GI50 (SW-620 colon) 0.561 µM | GI50 (A498 renal) 1.06 µM | GI50 (SK-OV-3 ovarian) 6.13 µM | GI50 (OVCAR-8 ovarian) 4.53 µM | GI50 (HCT-15 colon) 0.486 µM | GI50 (SK-MEL-5 melanoma) 0.901 µM | GI50 (UO-31 renal) 3.4 µM | GI50 (MOLT-4 leukemia) 1.73 µM | GI50 (ACHN renal) 4.45 µM | GI50 (T-47D breast) 4.99 µM | GI50 (MALME-3M melanoma) > 100 µM | GI50 (HOP-92 NSCLC) 13.1 µM | GI50 (U251 CNS) 1.38 µM | GI50 (KM12 colon) 0.703 µM | GI50 (NCI/ADR-RES ovarian) 0.768 µM | GI50 (SF-539 CNS) 1.22 µM | GI50 (HCC-2998 colon) 3.35 µM | GI50 (NCI-H23 lung) 3.57 µM | GI50 (HT29 colon) 0.505 µM | GI50 (UACC-62 melanoma) 0.972 µM | GI50 (EKVX NSCLC) 4.62 µM | GI50 (OVCAR-5 ovarian) 5.23 µM | GI50 (M14 melanoma) 0.816 µM | GI50 (NCI-H460 lung) 3.9 µM | GI50 (HOP-62 NSCLC) 4.33 µM | GI50 (SN12C renal) 6.44 µM | GI50 (IGROV1 ovarian) 3.84 µM | GI50 (HS 578T breast) 1.7 µM | GI50 (SF-268 CNS) 2.91 µM | GI50 (SNB-75 CNS) 0.432 µM | GI50 (OVCAR-4 ovarian) 4.76 µM | GI50 (SR leukemia) 0.543 µM | GI50 (LOX IMVI melanoma) 0.771 µM | GI50 (NCI-H522 lung) 1.44 µM | GI50 (DU-145 prostate) 2.8 µM | GI50 (CCRF-CEM leukemia) 0.983 µM | GI50 (TK-10 renal) 62.7 µM
